For data set [1], the system named is Human peripheral blood lymphocytes. The data set is described as follows: Human mixed lymphocyte reaction (huMLR). The class given is cell-based. The settings on record: 3H-thymidine incorporation, 6 days, read-out: IC50, inhibition of T-cell activation. The protocol:
Human Mixed Lymphocyte Reaction (huMLR):
The purpose of this assay is to test the potency of T cell activation inhibitors in an in vitro model of allogeneic T cell stimulation. Human peripheral blood lymphocytes (hPBL; 2×10^5/well) are incubated with mitomycin C-treated B lymphoblastoid cells (JY cell line; 1×10^5/well) as allogeneic stimulators in the presence or absence of dilutions of potential inhibitor compound in 96-well round-bottom tissue culture plates. These cultures are incubated at 37° C. in 5% CO2 for 6 days total. The proliferative response of the hPBL is measured by ^3H-thymidine incorporation overnight between days 5 and 6 after initiation of culture. Cells are harvested onto glass fiber filters and ^3H-thymidine incorporation into DNA is analyzed by liquid scintillation counter.
For orientation: Dividing cells build labelled thymidine or BrdU into new DNA.

The test system of data set [2] is Human Umbilical Vein Endothelial cells. Nature of the data set: HUVEC proliferation assay, VEGF-stimulated. In kind it is cell-based. To be noted: 72 h, read-out: inhibition of VEGF-stimulated HUVEC proliferation. The protocol: HUVEC Proliferation Assay
Human Umbilical Vein Endothelial cells are purchased from Clonetics, Inc., as cryopreserved cells harvested from a pool of donors. These cells, at passage 1, are thawed and expanded in EBM-2 complete medium, until passage 2 or 3. The cells are trypsinized, washed in DMEM+10% FBS+antibiotics, and spun at 1000 rpm for 10 min. Prior to centrifugation of the cells, a small amount is collected for a cell count. After centrifugation, the medium is discarded, and the cells are resuspended in the appropriate volume of DMEM+10% FBS+antibiotics to achieve a concentration of 3×10^5 cells/mL. Another cell count is performed to confirm the cell concentration. The cells are diluted to 3×10^4 cells/mL in DMEM+10% FBS+antibiotics, and 100 μL of cells are added to a 96-well plate. The cells are incubated at 37° C. for 22 h.
Prior to the completion of the incubation period, compound dilutions are prepared. Five-point, five-fold serial dilutions are prepared in DMSO, at concentrations 400-fold greater than the final concentrations desired. 2.5 μL of each compound dilution are diluted further in a total of 1 mL DMEM+10% FBS+antibiotics (400× dilution). Medium containing 0.25% DMSO is also prepared for the 0 μM compound sample. At the 22 h timepoint, the medium is removed from the cells, and 100 μL of each compound dilution is added. The cells are incubated at 37° C. for 2-3 h.
During the compound pre-incubation period, the growth factors are diluted to the appropriate concentrations. Solutions of DMEM+10% FBS+antibiotics, containing either VEGF or bFGF at the following concentrations: 50, 10, 2, 0.4, 0.08, and 0 ng/mL are prepared. For the compound-treated cells, solutions of VEGF at 550 ng/mL or bFGF at 220 ng/mL for 50 ng/mL or 20 ng/mL final concentrations, respectively, are prepared since 10 μL of each will be added to the cells (110 μL final volume). At the appropriate time after adding the compounds, the growth factors are added. VEGF is added to one set of plates, while bFGF is added to another set of plates. For the growth factor control curves, the media on wells B4-G6 of plates 1 and 2 are replaced with media containing VEGF or bFGF at the varying concentrations (50-0 ng/mL). The cells are incubated at 37° C. for an additional 72 h.
At the completion of the 72 h incubation period, the medium is removed, and the cells are washed twice with PBS. After the second wash with PBS, the plates are tapped gently to remove excess PBS, and the cells are placed at −70° C. for at least 30 min. The cells are thawed and analyzed using the CyQuant fluorescent dye (Molecular Probes C-7026), following the manufacturer's recommendations. The plates are read on a Victor/Wallac 1420 workstation at 485 nm/530 nm (excitation/emission). Raw data are collected and analyzed using a 4-parameter fit equation in XLFit. IC50 values are then determined.

pIC50: −log10 of the molar value. Like-named read-outs stand apart in the source and are kept apart here.

For `COc1cc2nccc(Oc3ccc4c(C(=O)Nc5cc(C(F)(F)F)ccn5)cccc4c3)c2cc1OC` [Example 657, 6-((6,7-bis(methoxy)-4-quinolinyl)oxy)-N-(4-(trifluoromethyl)-2-pyridinyl)-1-naphthalenecarboxamide], the pIC50 in data set [1] was more than 7.00.
Broadly, the melting point is the temperature of the solid-liquid transition. For the molecule `CCNC(=O)Nc1ccc2c(F)c(Oc3ccnc4cc(OCCCN5CCOCC5)c(OC)cc34)ccc2c1` [Example 111], the melting point was in the range of 193.5 to 196.4 °C.
Take `COc1cc2nccc(Oc3ccc4c(C(=O)Nc5ccc(Cl)cc5)cccc4c3)c2cc1OC` [Example 114, 6-(6,7-Dimethoxy-quinolin-4-yloxy)-naphthalene-1-carboxylic acid(4-chloro-phenyl)-amide]: the pIC50 in data set [2] was more than 6.30.
As to `COc1cc2nccc(Oc3ccc4c(C(=O)Nc5cccc(C(F)(F)F)c5)cccc4c3)c2cc1OC` [Example 116, 6-(6,7-dimethoxy-quinolin-4-yloxy)-naphthalene-1-carboxylix acid (3-trifluoromethyl-phenyl)-amide], the pIC50 in data set [2] (VEGF-stimulated) was more than 6.30.
In the case of `COc1cc2nccc(Oc3ccc4c(C(=O)Nc5ncc(C)s5)cccc4c3)c2cc1OC` [Example 289, 6-((6,7-bis(methoxy)-4-quinolinyl)oxy)-N-(5-methyl-1,3-thiazol-2-yl)-1-naphthalenecarboxamide], the pIC50 in data set [1] was more than 7.00.
On the same count and under the same terms, the same measure for `COc1cc2nccc(Oc3ccc4c(C(=O)Nc5cc(C(C)(C)C)on5)cccc4c3)c2cc1OC` [Example 583, 6-((6,7-bis(methoxy)-4-quinolinyl)oxy)-N-(5-(1,1-dimethylethyl)-3-isoxazolyl)-1-naphthalenecarboxamide]: more than 7.00.
As to `COc1cc2c(Oc3ccc4c(C(=O)Nc5cc(C(C)(C)C)on5)cccc4c3F)ccnc2cc1OCCCN1CCOCC1` [Example 611, N-(5-(1,1-dimethylethyl)-3-isoxazolyl)-5-fluoro-6-((6-(methoxy)-7-((3-(4-morpholinyl)propyl)oxy)-4-quinolinyl)oxy)-1-naphthalenecarboxamide], in data set [1], the pIC50 is more than 7.00.
For `COc1cc2nccc(Oc3ccc4c(NC(=O)c5ccc(Cl)cc5)cccc4c3)c2cc1OC` [Example 121, N-[6-(6,7-Dimethoxy-quinolin-4-yloxy)-naphthalen-1-yl]-4-chloro-benzamide], in data set [2] (VEGF-stimulated), the pIC50 is more than 6.30.
`COc1cc2c(Oc3ccc4c(C(=O)Nc5ccc(Cl)cc5)cccc4c3F)ccnc2cc1OCCCN1CCOCC1` [Example 816]: the pIC50 in data set [1] is more than 7.00.
Consider `COc1cc2nccc(Oc3ccc4c(C(=O)Nc5cc(C(C)(C)C)[nH]n5)cccc4c3)c2cc1OC` [Example 589, 6-((6,7-bis(methoxy)-4-quinolinyl)oxy)-N-(5-(1,1-dimethylethyl)-1H-pyrazol-3-yl)-1-naphthalenecarboxamide], for which the pIC50 in data set [1] is more than 7.00.
With `COc1cc2nccc(Oc3ccc4c(NC(=O)c5ccccc5F)cccc4c3)c2cc1OC` [Example 120, N-[6-(6,7-dimethoxy-quinolin-4-yloxy)-naphthalen-1-yl]-2-fluoro-benzamide], in data set [2] (VEGF-stimulated), the pIC50 was more than 6.30.
`COc1ccc(C(C)(C)C)cc1NC(=O)c1cccc2cc(Oc3ccnc4cc(OCCCN5CCOCC5)c(OC)cc34)ccc12` [Example 342, N-(5-(1,1-dimethylethyl)-2-(methoxy)phenyl)-6-((6-(methoxy)-7-((3-(4-morpholinyl)propyl)oxy)-4-quinolinyl)oxy)-1-naphthalenecarboxamide]: the pIC50 in data set [1] was more than 7.00.
For the molecule `COc1cc2c(Oc3ccc4c(C(=O)Nc5cccc(C(F)(F)F)c5)cccc4c3)ccnc2cc1OCCCN1CCOCC1` [Example 314, 6-((6-(methoxy)-7-((3-(4-morpholinyl)propyl)oxy)-4-quinolinyl)oxy)-N-(3-(trifluoromethyl)phenyl)-1-naphthalenecarboxamide], the pIC50 in data set [1] is more than 7.00.
`COc1cc2nccc(Oc3ccc4c(C(=O)Nc5ccc(C(F)(F)F)cc5)cccc4c3)c2cc1OC` [Example 115, 6-(6,7-dimethoxy-quinolin-4-yloxy)-naphthalene-1-carboxylix acid (4-trifluoromethyl-phenyl)-amide]: the pIC50 in data set [2] (VEGF-stimulated) is more than 6.30.
For the molecule `COc1cc2nccc(Oc3ccc4c(C(=O)Nc5cc(C(C)(C)C)on5)cccc4c3F)c2cc1OC` [Example 467, 6-((6,7-bis(methoxy)-4-quinolinyl)oxy)-N-(5-(1,1-dimethylethyl)-3-isoxazolyl)-5-fluoro-1-naphthalenecarboxamide], in data set [1], the pIC50 is more than 7.00.
The same measure, in the same setting: the same measure for `COc1cc2c(Oc3ccc4c(C(=O)Nc5cc(C(C)(C)C)[nH]n5)cccc4c3)ccnc2cc1OCCCN1CCOCC1` [Example 325, N-(5-(1,1-dimethylethyl)-1H-pyrazol-3-yl)-6-((6-(methoxy)-7-((3-(4-morpholinyl)propyl)oxy)-4-quinolinyl)oxy)-1-naphthalenecarboxamide]: more than 7.00; for `COc1cc2c(Oc3ccc4c(C(=O)Nc5cc(C(C)(C)C)on5)cccc4c3)ncnc2cc1OCCCN1CCCCC1` [Example 732, N-(5-(1,1-dimethylethyl)-3-isoxazolyl)-6-((6-(methoxy)-7-((3-(1-piperidinyl)propyl)oxy)-4-quinazolinyl)oxy)-1-naphthalenecarboxamide]: more than 7.00.
For `COc1cc2nccc(Oc3ccc4c(C(=O)Nc5ccc(Cl)c(C(F)(F)F)c5)cccc4c3)c2cc1OC` [Example 117, 6-(6,7-dimethoxy-quinolin-4-yloxy)-naphthalene-1-carboxylix acid (4-chloro-3-trifluoromethyl-phenyl)-amide], in data set [2] (VEGF-stimulated), the pIC50 is more than 6.30.
Consider `COc1cc2nccc(Oc3ccc4c(C(=O)Nc5cc(C(C)(C)C)on5)ccc(C)c4c3)c2cc1OC` [Example 541, 6-((6,7-bis(methoxy)-4-quinolinyl)oxy)-N-(5-(1,1-dimethylethyl)-3-isoxazolyl)-4-methyl-1-naphthalenecarboxamide], for which, in data set [1], the pIC50 is more than 7.00.

The record behind these values is patent publication US7435823B2, “Compounds and methods of use” (Amgen Inc., priority 2004, dated 2008).
